Test results as given in patent US10392383B2, “3-(1H-benzo[d]imidazol-2-yl)-1H-pyrazolo[4,3-b]pyridines and therapeutic uses thereof” (Samumed, LLC, priority 2015, dated 2019).

What was measured:
Type in all cases: cell-based
[1] = tested on: SW480 colon cancer cells; experiment: Cell viability assay (CellTiter-Blue) in SW480 cells; details: Homo sapiens, 96 h, four days; for inhibition at 10 µM: read-out: percent inhibition at 10 μM (given for EC50 of >10 μM); for EC50: CellTiter-Blue, 10 μM to 0.0045 μM
Method in brief: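 SW480 colon cancer cells (~2×10^3/well) exposed to 8-point 1:3 dilutions from 10 μM to 0.0045 μM for four days at 37 °C/5% CO2. Viability read by resazurin (CellTiter-Blue) fluorescence after ~3 h, Ex 560/Em 590 nm. EC50 from non-linear regression; percent inhibition at 10 μM given when EC50 >10 μM.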

[2] = tested on: Wnt activity (Sp5-Luc reporter, Wnt-responsive promoter) in SW480 colon carcinoma cells; experiment: Wnt activity screening assay: Sp5-Luc reporter gene assay in SW480 cells; details: Homo sapiens; for EC50: overnight incubation, 10-point curve starting from 10 μM; for inhibition at 10 µM: read-out: percent inhibition at 10 μM (given for EC50 of >10 μM)
Method in brief: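 Luminescence read-out (BrightGlo) from stable Sp5-Luc SW480 cells, normalized to DMSO-only wells. Cells were treated overnight at 37° C in 1% FBS medium across a 1:3, 10-point series starting at 10 μM. EC50 from variable-slope four-parameter regression; percent inhibition at 10 μM given where EC50 >10 μM.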

[3] = tested on: IL-6 (THP-1 cells); experiment: IL-6 inhibition in LPS-stimulated THP-1 monocytes (HTRF); details: Homo sapiens, IL-6 HTRF; for EC50: 500 ng/mL LPS, Table 6; for inhibition at 10 µM: LPS, Table 6, read-out: percent inhibition at 10 μM (given in parentheses for EC50 >10 μM)
Method in brief: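 THP-1 cells in 1% FBS pre-incubated 2 h with compound (10-point 1:3 series from 10 μM, 0.1% DMSO), then stimulated with 500 ng/mL LPS for 22 h at 37 °C. IL-6 measured by HTRF 665/620 ratio, normalized to DMSO; EC50 by four-parameter fit, or % inhibition at 10 μM when EC50 >10 μM.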

SMILES	EC50 [1]	EC50 [2]	EC50 [3]	inhibition at 10 µM [1]	inhibition at 10 µM [3]	inhibition at 10 µM [2]
O=C(Nc1cncc(-c2ccc3[nH]nc(-c4nc5c(-c6ccncc6)cccc5[nH]4)c3n2)c1)C1CCCCC1 [Compound 135, N-(5-(3-(4-(pyridin-4-yl)-1H-benzo[d]imidazol-2-yl)-1H-pyrazolo[4,3-b]pyridin-5-yl)pyridin-3-yl)cyclohexanecarboxamide]	> 10 µM	> 10 µM	> 10 µM	1%	32.4%	5.4%
CC(C)C(=O)Nc1cncc(-c2ccc3[nH]nc(-c4nc5c(-c6ccccc6F)cccc5[nH]4)c3n2)c1 [Compound 65, N-(5-(3-(4-(2-fluorophenyl)-1H-benzo[d]imidazol-2-yl)-1H-pyrazolo[4,3-b]pyridin-5-yl)pyridin-3-yl)isobutyramide]	> 10 µM	5.1 µM	> 10 µM	16.1%	30.7%	
CCNCc1cncc(-c2ccc3[nH]nc(-c4nc5c(-c6ccccn6)cccc5[nH]4)c3n2)c1 [Compound 146, N-((5-(3-(4-(Pyridin-2-yl)-1H-benzo[d]imidazol-2-yl)-1H-pyrazolo[4,3-b]pyridin-5-yl)pyridin-3-yl)methyl)ethanamine]	1.56 µM	> 10 µM	> 10 µM		19.5%	41.6%
O=C(Nc1cncc(-c2ccc3[nH]nc(-c4nc5c(-c6ccc(F)cc6)cccc5[nH]4)c3n2)c1)C1CCC1 [Compound 49, N-(5-(3-(4-(4-Fluorophenyl)-1H-benzo[d]imidazol-2-yl)-1H-pyrazolo[4,3-b]pyridin-5-yl)pyridin-3-yl)cyclobutanecarboxamide]	> 10 µM	> 10 µM	> 10 µM	12.9%	43.6%	28.3%
Cc1ccc(-c2cccc3[nH]c(-c4n[nH]c5ccc(-c6cncc(NC(=O)C7CCCC7)c6)nc45)nc23)s1 [Compound 414, N-(5-(3-(4-(5-Methylthiophen-2-yl)-1H-benzo[d]imidazol-2-yl)-1H-pyrazolo [4,3-b]pyridin-5-yl)pyridin-3-yl)cyclopentanecarboxamide]	> 10 µM	> 10 µM	0.0983 µM	0%		7.2%
CCCCC(=O)Nc1cncc(-c2ccc3[nH]nc(-c4nc5c(-c6ccccn6)cccc5[nH]4)c3n2)c1 [Compound 159, N-(5-(3-(4-(Pyridin-2-yl)-1H-benzo[d]imidazol-2-yl)-1H-pyrazolo[4,3-b]pyridin-5-yl)pyridin-3-yl)pentanamide]	> 10 µM	> 10 µM	> 10 µM	11%	26.6%	11.3%
Fc1ccccc1-c1cccc2[nH]c(-c3n[nH]c4ccc(-c5cncc(CNCC6CCCC6)c5)nc34)nc12 [Compound 81, 1-Cyclopentyl-N-((5-(3-(4-(2-fluorophenyl)-1H-benzo[d]imidazol-2-yl)-1H-pyrazolo[4,3-b]pyridin-5-yl)pyridin-3-yl)methyl)methanamine]	1.14 µM	1.14 µM	3.6 µM			
Fc1cccc(-c2cccc3[nH]c(-c4n[nH]c5ccc(-c6cnccn6)nc45)nc23)c1 [Compound 520, 3-(4-(3-Fluorophenyl)-1H-benzo[d]imidazol-2-yl)-5-(pyrazin-2-yl)-1H-pyrazolo[4,3-b]pyridine]	1.79 µM	> 10 µM	> 10 µM		43.3%	26%
CS(=O)(=O)NCc1cc(F)cc(-c2cccc3[nH]c(-c4n[nH]c5ccc(-c6cncc(NC(=O)c7ccccc7)c6)nc45)nc23)c1 [Compound 487, N-(5-(3-(4-(3-Fluoro-5-(methylsulfonamidomethyl)phenyl)-1H-benzo[d]imidazol-2-yl)-1H-pyrazolo[4,3-b]pyridin-5-yl)pyridin-3-yl)benzamide]	> 10 µM	> 10 µM	> 10 µM	9.7%	0%	0%

Further lines, with some results ahead:

EC50 [1]	EC50 [2]	EC50 [3]	SMILES	inhibition at 10 µM [1]	inhibition at 10 µM [3]	inhibition at 10 µM [2]
> 10 µM	3.39 µM	> 10 µM	Cn1cc(-c2ccc3[nH]nc(-c4nc5c(N6CCCCC6)cccc5[nH]4)c3n2)c(CO)n1 [Compound 1134, (1-Methyl-4-(3-(4-(piperidin-1-yl)-1H-benzo[d]imidazol-2-yl)-1H-pyrazolo [4,3-b]pyridin-5-yl)-1H-pyrazol-3-yl)methanol]	18.2%	28.3%	
> 10 µM	3.81 µM	> 10 µM	Cc1ccc(-c2cccc3[nH]c(-c4n[nH]c5ccc(-c6cncc(OC7CCCCC7)c6)nc45)nc23)s1 [Compound 735, 5-(5-(Cyclohexyloxy)pyridin-3-yl)-3-(4-(5-methylthiophen-2-yl)-1H-benzo [d]imidazol-2-yl)-1H-pyrazolo[4,3-b]pyridine]	32.3%	38.8%	
3.85 µM	4.21 µM	0.0939 µM	c1cc(-c2ccoc2)c2nc(-c3n[nH]c4ccc(-c5cncc(OCCN6CCCC6)c5)nc34)[nH]c2c1 [Compound 690, 3-(4-(Furan-3-yl)-1H-benzo[d]imidazol-2-yl)-5-(5-(2-(pyrrolidin-1-yl)ethoxy)pyridin-3-yl)-1H-pyrazolo[4,3-b]pyridine]			
1.54 µM	4.19 µM	5.89 µM	CN(C)CCOc1cncc(-c2ccc3[nH]nc(-c4nc5c(-c6cccs6)cccc5[nH]4)c3n2)c1 [Compound 707, N,N-Dimethyl-2-((5-(3-(4-(thiophen-2-yl)-1H-benzo[d]imidazol-2-yl)-1H-pyrazolo[4,3-b]pyridin-5-yl)pyridin-3-yl)oxy)ethan-1-amine]			
9.42 µM	3.99 µM	7.09 µM	CN1CCN(c2cccc3[nH]c(-c4n[nH]c5ccc(-c6cncc(NC(=O)C(F)(F)F)c6)nc45)nc23)CC1 [Compound 1127, 2,2,2-Trifluoro-N-(5-(3-(4-(4-methylpiperazin-1-yl)-1H-benzo[d]imidazol-2-yl)-1H-pyrazolo[4,3-b]pyridin-5-yl)pyridin-3-yl)acetamide]			
1.01 µM	0.98 µM	0.0055 µM	COc1cccc(-c2cccc3[nH]c(-c4n[nH]c5ccc(-c6cncc(O)c6)nc45)nc23)c1 [Compound 1030, 5-(3-(4-(3-Methoxyphenyl)-1H-benzo[d]imidazol-2-yl)-1H-pyrazolo[4,3-b]pyridin-5-yl)pyridin-3-ol]			
> 10 µM	> 10 µM	> 10 µM	c1ccc(COc2cncc(-c3ccc4[nH]nc(-c5nc6c(-c7ccncc7)cccc6[nH]5)c4n3)c2)cc1 [Compound 582, 5-(5-(Benzyloxy)pyridin-3-yl)-3-(4-(pyridin-4-yl)-1H-benzo[d]imidazol-2-yl)-1H-pyrazolo[4,3-b]pyridine]	28.5%	2.8%	39.1%
2.1 µM	1.37 µM	> 10 µM	COc1cncc(-c2ccc3[nH]nc(-c4nc5c(-c6ccoc6)cccc5[nH]4)c3n2)c1 [Compound 692, 3-(4-(Furan-3-yl)-1H-benzo[d]imidazol-2-yl)-5-(5-methoxypyridin-3-yl)-1H-pyrazolo[4,3-b]pyridine]		53.2%	
